The results in this text go back to publication PMC12388980, “Development of AGT-7: An Innovative ^99mTc-Labeled Theranostic Platform for Glioblastoma Imaging and Therapy” (Pharmaceuticals, 2025).

For data set [1], the system named is U87 cells. Put plainly: Flow cytometric analysis of DNA cell cycle, U87 cells. In kind it is cell-based. As to conditions: treated at IC50 for 72 h. As to the method:
(§1) Subsequently, cells were washed with phosphate-buffered saline (PBS) solution, harvested by incubation with trypsin, and held at 37 °C for 20 min with a PI working solution ([…], and 0.1% Triton X-100). PI fluorescence data were collected using a flow cytometer (Cytognos S.L., Polígono La Serna, Nave 9, 37900 Santa Marta de Tormes, Salamanca, Spain) and were analyzed using GraphPad Prism Version 6 software and MedCalc software (trial version).
(§2) Figure 5 Graphical representation of cell cycle distribution in T98 (A) and U87 (B) cell lines after treatment with AGT-7 in IC50 concentration. Experiment was carried out three times, and values are means of three repetitions.
(Flow cytometry measures light scatter and fluorescence of single cells or particles in a stream.)

The subject of data set [2] is zebrafish (Danio rerio) embryos. The data set is described as follows: Acute toxicity test in zebrafish embryos (OECD 2010). The format is in vivo. As to conditions: 96 hpf. The protocol: Prior to advancing the biological evaluation of AGT-7, it was essential to assess its in vivo acute toxicity. To this end, we employed a standard acute exposure assay using zebrafish (Danio rerio) embryos as a vertebrate model system. Drug exposure was for 96 h post-fertilization (hpf), following the guidelines established by the Organisation for Economic Co-operation and Development (OECD, 2010) for fish embryo toxicity testing. […] This alignment between therapeutically effective concentrations and sub-lethal doses in vivo underscores a favorable safety profile for AGT-7 and supports its further preclinical development.
Adult zebrafish specimens of the wild-type strain (AB) were maintained in a colony room, in a recirculated system, at 28 ± 1 °C, pH 6.5–7.5, and water conductivity of 500 ± 50 μS cm−1 with a 14 h light/10 h dark photoperiod (lights on at 8:00 a.m.). Feeding of the fish was performed twice a day with zebrafish feed (Zebrafeed, Sparos, […]) following common practices. Sexually mature zebrafish (at least three months old) were used for spawning.
The collection of zebrafish eggs was performed at the beginning of the 14 h light phase following the mating procedure that took place overnight. […] The dechorionation process of the eggs followed at 24 h post-fertilization (hpf).
The dechorionated embryos were placed in 24-well culture plates (2 embryos per well, 1.5 mL of solution per well), and each experiment was performed in triplicate. Preliminary tests were performed to evaluate the range of 0–100% mortality. DMSO (0.1%) was used as dissolver and as well as vehicle control (non-exposed). In the current study, seven different concentrations of AGT-7 were tested (0.0, 10.0, 20.0, 40.0, 60.0, 80.0, and 100.0 μΜ). In total, 881 embryos were studied, of which 96 belonged to the non-exposed group. […] Each experiment lasted 96 h post fertilization time (hpf) and began at 24 hpf, approximately at the 26-somite point, according to Kimmel et al..
It is essential to apply an acute test that uses short-term exposure (96hpf) to AGT-7 and then to determine the concentration that is lethal to 50% of zebrafish embryos. This is a valuable indicator of acute fish toxicity. According to OECD 2010, indications of death of an embryo include coagulation of the embryo, lack of somite formation, non-detachment of the tail, and/or lack of heartbeat.
Toxicity assays (LD50 values) and confidence limits (LD25 and LD75) were calculated based on cumulative mortality at the end of the experiment (96 hpf). The LD50 values were assessed using Regression Probit analysis (the chi-square test, Pearson goodness of fit test, and 95% confidence interval).

Data set [3] is described as follows: LC-MS-based plasma stability in human plasma. As to conditions: 1 μM, 37 °C, 9-h incubation period, compared to TMZ. The format is in vitro ADME. As to the method:
Plasma samples were diluted 1:1 (v/v) with phosphate buffer (pH 7.4). […] The mixtures were vortexed vigorously and incubated at 37 °C on a thermoshaker (Kisker Biotech, Steinfurt, Germany) at 600 rpm. Reactions were terminated at 0, 1, 2, 3, 4, 6, 9, and 24 h by transferring 150 μL of the incubated plasma into 450 μL of ice-cold ACN. After vortexing, samples were stored at −20 °C for 30 min and centrifuged, and 200 μL of the supernatant was diluted with 600 μL of water. The resulting solution was filtered through a 0.22 μm nylon syringe filter (Target Analysis, Thessaloniki, Greece) into 2 mL glass vials before analysis.
The mobile phase consisted of (A) 0.1% formic acid in water and (B) 0.05% formic acid in ACN, delivered constantly at 0.2 mL/min. The gradient program was optimized as follows: 1% B (0.00–3.00 min), linear ramp to 100% B (3.00–10.00 min), hold at 100% B (10.00–12.00 min), return to initial conditions (12.00–12.01 min), and re-equilibration at 1% B (12.01–15.00 min). […]
Full-scan MS data were acquired in MS^E mode with two alternating collision energy functions: low energy (4 eV) for precursor ions and ramped high energy (25–45 eV) for fragment ions. […] System control and data acquisition were managed using MassLynx v4.2 (SCN 1029), while UNIFI v1.9.4.053 facilitated data processing, including adduct identification ([M+H]⁺, [M+Na]⁺, [M+H2]^2+) and relative quantitation. […]

Data set [4] has as its system T98 cells. Put plainly: Flow cytometric analysis of DNA cell cycle, T98 cells. Particulars: treated at IC50 for 72 h. In kind it is cell-based. The protocol: as §1, §2
The test system of data set [5] is T98 cells. The data set is described as follows: Trypan blue exclusion cytotoxicity assay, T98 cells. The format is cell-based. As to conditions: Homo sapiens, T98 cell line, 72 h post-treatment. The protocol:
(§3) To explore the effect of AGT-7 on the viability of GBM cell lines, T98 and U87 cells were cultured with escalating concentrations of the compounds for 72 h, and afterward, the trypan blue exclusion assay was carried out.
(§4) The sensitivity of T98 and U87 cells to the compound was assessed using the trypan blue exclusion test. A total of 20,000 cells were seeded onto 12-well plates and incubated in a humidified atmosphere. After 24 h, cells were treated with the compound at concentrations of 20–100 μM for 72 h followed by trypan blue exclusion analysis. The results were derived as the mean of three independent experiments.
(§5) Figure 3 Cytotoxic effect of AGT-7 on T98 (A) and U87 cell lines (B) 72 h after treatment. The results are the average of three independent experiments and are standardized to untreated cells. The IC50 values were calculated using the GraphPad Prism Version 6 non-linear regression analysis model.
(§6) Figure 4 Cytotoxic effect of AGT-7 and TMZ on T98 (A) and U87 cell lines (B) 72 h after treatment. The results are the average of three independent experiments and are standardized to untreated cells. The IC50 values were calculated using the GraphPad Prism Version 6 non-linear regression analysis model.

Data set [6] concerns U87 cells. Put plainly: Trypan blue exclusion cytotoxicity assay, U87 cells. As to conditions: Homo sapiens, U-87 MG, U87 cell line, 72 h post-treatment. In kind it is cell-based. As to the method: as §3, §4, §5, §6

As usually defined, the IC50 is the concentration that inhibits the measured activity by half. Lower therefore signals inhibition by little substance. Consider `Cn1nnc2c(C(=O)NCCCCN(Cc3ccccn3)Cc3ccccn3)ncn2c1=O` [AGT-7], for which the “effect on cell cycle progression” value in the data set on U87 cells [1] is “no significant effect on cell cycle progression”. Also, in data set [2], the LD25 turned out to be 35.54 µM, the LD75 was found to be 61.64 µM and the “concentrations with no significant mortality” value is reported as “up to 30 μM”. Besides, the LD50 in data set [2] (cumulative mortality, probit analysis) turned out to be 46.81 µM. In addition, in data set [3], the plasma stability profile result was “very similar to that of the parent drug, TMZ”. For the same compound, the “effect on cell cycle progression” value with T98 cells [4] was “no significant effect on cell cycle progression”. The same compound registered an IC50 in the data set with T98 cells [5] of 27 µM. For the same compound, the IC50 in the data set with U87 cells [6] was 30 µM.

On to `Cn1nnc2c(C(N)=O)ncn2c1=O` [TMZ, temozolomide, reference compound], for which the IC50 in the data set on T98 cells [5] came to 143 µM; with U87 cells [6], 50 µM.
